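Exposure lasted 48 hours, with cells grown in 96-well plates and compounds tested at five concentrations. GI50: concentration for 50% inhibition of growth. TGI is the concentration that stops growth completely.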
Experiments:
Assay in all cases: growth of human tumour cells (NCI), 48 h
[1] = test system: NCI-H226 lung
[2] = test system: UACC-257 melanoma
[3] = test system: OVCAR-8 ovarian
[4] = test system: PC-3 prostate
[5] = test system: OVCAR-5 ovarian
[6] = test system: SN12C renal
[7] = test system: SNB-75 CNS
[8] = test system: HCC-2998 colon
[9] = test system: NCI-H460 lung
[10] = test system: HOP-62 NSCLC

| SMILES | TGI [1] | TGI [2] | TGI [3] | TGI [4] | TGI [5] | TGI [6] | TGI [7] | TGI [8] | TGI [9] | TGI [10] | GI50 [1] | GI50 [2] | GI50 [3] | GI50 [4] | GI50 [5] | GI50 [6] | GI50 [7] | GI50 [8] | GI50 [9] | GI50 [10] |
| --- | --- | --- | --- | --- | --- | --- | --- | --- | --- | --- | --- | --- | --- | --- | --- | --- | --- | --- | --- | --- |
| NC(N)=N/N=C(/c1ccccc1)c1ccc(O)cc1O | > 100 µM | > 100 µM | 59.2 µM | > 100 µM | > 100 µM | 91 µM | > 100 µM | 32 µM | 88.4 µM | > 100 µM |  |  |  |  |  |  |  |  |  |  |
| COc1ccc(CC(C#N)c2cc(OC)c(OC)c(OC)c2)cc1 (configuration not stated) | 14.3 µM | > 100 µM | 13 µM | > 100 µM | > 96.9 µM | > 79.9 µM | > 100 µM |  | 21 µM | > 100 µM |  |  |  |  |  |  |  |  |  |  |
| OCCCCC#Cc1ccccc1C#Cc1cccs1 | 43.6 µM | 33 µM | 31.2 µM | 30.8 µM | 31.7 µM | 31.7 µM | 24.8 µM | 33.7 µM | 29.8 µM | 26.5 µM | 18900 nM | 18800 nM | 16400 nM | 16200 nM | 16100 nM | 16300 nM | 11800 nM | 18300 nM | 15100 nM | 13000 nM |
| Cc1sc2c(c1C)C(c1ccc(Cl)cc1)=N[C@@H](CC(=O)Nc1ccc(O)cc1)c1nnc(C)n1-2 | 26 µM | 26.9 µM | 40.6 µM | 23.1 µM | 30.3 µM | 30.7 µM | 8.58 µM | 21.8 µM | 27.4 µM | 17.2 µM | 4480 nM | 632 nM | 2260 nM | 1110 nM | 11600 nM | 9410 nM | 29.7 nM | 2480 nM | 2950 nM | 180 nM |
| Cc1ccc(C(=O)Nc2ccccc2C(=O)N/N=C(\c2ccccc2)c2ccccn2)cc1 | > 100 µM | > 100 µM | > 100 µM | > 100 µM | > 100 µM | > 100 µM | > 39.2 µM | > 100 µM | > 100 µM | > 100 µM | 895 nM | 999 nM | 377 nM | 1100 nM | 607 nM | 760 nM | 1180 nM | 381 nM | 211 nM | 270 nM |
| ClC1=C(Cl)C(Cl)=C(Cl)C1=Cc1ccc(Cl)cc1Cl |  |  |  | 1.64 µM | 4.01 µM | 0.743 µM | 5.51 µM | 1.14 µM |  | 3.57 µM |  |  |  | 393 nM | 1330 nM | 254 nM | 1900 nM | 341 nM |  | 396 nM |
| Oc1oc(-c2ccccc2)nc1/C=C1/C=NN=N1 | > 100 µM | > 100 µM | > 100 µM | > 100 µM | > 100 µM | > 100 µM | > 100 µM | > 100 µM | > 100 µM | > 100 µM |  |  |  |  |  |  |  |  |  |  |
| O=C1/C(=C/c2ccc(C(F)(F)F)cc2)COc2ccc(O)cc21 | 8.21 µM | 20.9 µM | 11.1 µM | 4.17 µM | 5.49 µM | 3.46 µM | 27.8 µM | 2.93 µM | 10.4 µM | 25.4 µM | 2530 nM | 8060 nM | 3260 nM | 1890 nM | 2180 nM | 1730 nM | 13900 nM | 1570 nM | 3240 nM | 12800 nM |
| CN(C)CCN1C(=O)c2cccc3c(-c4ccc5ncn(C6CCCCC6)c5c4)ccc(c23)C1=O | 7.78 µM | 8.41 µM | 9.76 µM | 5.75 µM | 20.1 µM | 12.1 µM | 10.8 µM | 4.3 µM | 7.41 µM | 6.75 µM | 2320 nM | 3190 nM | 1210 nM | 1630 nM | 2990 nM | 1030 nM | 1780 nM | 1820 nM | 1010 nM | 1690 nM |
| CCN1CCN(c2nc(C)cc(N(CCCNc3ccnc4cc(Cl)ccc34)Cc3ccco3)n2)CC1 | 29.2 µM | 3.79 µM | 19.5 µM | 22 µM | 28.4 µM | 19.5 µM | 7.55 µM | 5.89 µM | 12.9 µM | 14.1 µM | 15300 nM | 1950 nM | 4080 nM | 6870 nM | 7900 nM | 5550 nM | 1700 nM | 2050 nM | 3730 nM | 3220 nM |
| COC(=O)C1=C2CO[C@@H]3C[C@H]4C(C)(C)CCC[C@]4(C)C(=CC1)[C@]23C | > 100 µM | > 100 µM | > 100 µM | 0.692 µM | > 100 µM | > 100 µM | 50.9 µM |  | > 100 µM | > 100 µM | 56500 nM | 35700 nM | 40200 nM | 229 nM | 21800 nM | 35100 nM | 20400 nM |  | 51100 nM | 45100 nM |
| c1cc(C2N3CCCN2CC3)ccn1 (configuration not stated) | > 100 µM | > 100 µM | > 100 µM | > 100 µM | > 100 µM | > 100 µM | > 100 µM | > 100 µM | > 100 µM | > 100 µM |  |  |  |  |  |  |  |  |  |  |
| CC1(C)CC(O)CCCCCCOc2c(CN)cccc2NC(=O)c2nc(cnc2N)-c2ccc(cc2)S1(=O)=O (configuration not stated) | 6.93 µM | 3.4 µM | 5.87 µM | 3.67 µM | 6.34 µM | 2.49 µM | 1.74 µM | 4.24 µM | 2.31 µM | 3.75 µM | 1280 nM | 1520 nM | 2140 nM | 543 nM | 2810 nM | 761 nM | 223 nM | 2010 nM | < 19.2 nM | 1410 nM |
| CCCCCCCCCCC(CN(CC)CC)C(O)c1ccccc1 (configuration not stated) | 4.66 µM | 5.78 µM | 5.83 µM | 3.13 µM | 3.49 µM | 5.69 µM | 2.7 µM | 3.39 µM | 3.5 µM |  | 2030 nM | 2640 nM | 2370 nM | 1620 nM | 1780 nM | 2110 nM | 1330 nM | 1810 nM | 1880 nM |  |

— PubChem BioAssay (NCI)
